Common to all, as to type: functional, Homo sapiens
Conditions in all cases: Homo sapiens, Concentration 10 uM; read-out: Cell Viability

Assay [1] concerns Colon cancer organoid. The assay is described as follows: Targeting of F14 CAF-induced therapy resistance in O23 CRC organoid-stroma co-culture. Cell viability is reported with Gefitinib.
For assay [2], the system named is Colon cancer organoid. Put plainly: Targeting of F14 CAF-induced therapy resistance in O14 CRC organoid-stroma co-culture. Cell viability is reported without Gefitinib.
For assay [3], the system named is Colon cancer organoid. Put plainly: Targeting of F14 CAF-induced therapy resistance in O23 CRC organoid-stroma co-culture. Cell viability is reported without Gefitinib.
Assay [4] deals with Colon cancer organoid. Put plainly: Targeting of F14 CAF-induced therapy resistance in O23 CRC organoid-stroma co-culture. Cell viability is reported with SN-38.
Assay [5] concerns Colon cancer organoid. The assay is described as follows: Targeting of F14 CAF-induced therapy resistance in O14 CRC organoid-stroma co-culture. Cell viability is reported with Gefitinib.

On to `CCOC(=O)c1c(/C(C#N)=C\N)c2ccc(Cl)c(Cl)c2n1C`, for which the viability (usually a read-out of living cells in per cent, often relative to untreated cells) at 10 µM stood at 52% in the assay on Colon cancer organoid [1]; 106% in the assay on Colon cancer organoid [2]; 99.7% in the assay on Colon cancer organoid [3]; 68.1% in the assay on Colon cancer organoid [4]; 47.7% with Colon cancer organoid [5].
On the same counts, the results for `CNc1nc(-c2ccc3c(N)n[nH]c3c2)cc(N2C[C@@H](C(=O)NC3CCCCC3)CC[C@H]2C)n1` are 24.3%, 57.6%, 44.8%, 39.8% and 17.9%.
For the molecule `Cc1sc2c(c1C)C(c1ccc(Cl)cc1)=N[C@H](CC(=O)OC(C)(C)C)c1nnc(C)n1-2`, the viability at 10 µM in the assay on Colon cancer organoid [1] worked out at 72%; in the assay with Colon cancer organoid [2] it was 103%; in the assay on Colon cancer organoid [3], 130%; in the assay on Colon cancer organoid [4] it was 73.3%; with Colon cancer organoid [5], 55.8%.
Turning to `CC(C)NC(=O)N1CC[C@H](NC2=Nc3cc(F)ccc3N(CC(F)F)c3ccc(Cl)cc32)C1`, the viability at 10 µM in the assay with Colon cancer organoid [1] was found to be 61.4%; in the assay with Colon cancer organoid [2], 89.7%; with Colon cancer organoid [3], 79%; in the assay on Colon cancer organoid [4], 42.9%; with Colon cancer organoid [5] it was 36%.
For the molecule `COc1cc(-c2cn([C@H]3CCc4c(F)cccc4N(CC(F)(F)F)C3=O)nn2)ccc1-n1cnc(C)c1`, the viability at 10 µM with Colon cancer organoid [1] is 72%; with Colon cancer organoid [2], 108%; in the assay with Colon cancer organoid [3], 86.7%; in the assay with Colon cancer organoid [4] it was 69.6%; in the assay with Colon cancer organoid [5], 38.5%.
As to `CN1CCN(c2ccc(-c3cccc(CN4CCOCC4)c3)cc2NC(=O)c2c[nH]c(=O)cc2C(F)(F)F)CC1`, the viability at 10 µM worked out at 62.5% in the assay on Colon cancer organoid [1]; 99.7% in the assay on Colon cancer organoid [2]; 131% in the assay on Colon cancer organoid [3]; 102% in the assay on Colon cancer organoid [4]; 65.8% in the assay with Colon cancer organoid [5].
On to `Cc1nc(N2CC[C@H](O)C2)ncc1-c1cc(C(F)(F)F)cc2[nH]ncc12`, for which the viability at 10 µM is 51.5% in the assay on Colon cancer organoid [1]; 91% with Colon cancer organoid [2]; 123% in the assay on Colon cancer organoid [3]; 82.7% with Colon cancer organoid [4]; 21.1% in the assay on Colon cancer organoid [5].
On the same counts, the results for `CCNC(=O)c1cc2c(N3CCOC[C@@H]3C)ccnc2n1C` are 38.3%, 70.2%, 104%, 84.1% and 36.3%.
The matching figures for `CN(C)[C@H]1CN(C2CCc3cccc(F)c32)C[C@@H]1c1ccc(N2CCN(S(C)(=O)=O)CC2)cc1` (stereo not given in full): 107%, 70.2%, 81.8%, 112% and 68.1%.
Turning to `COc1cc(Nc2ccnc3ccc(Br)cc23)cc(OC)c1OC`, the viability at 10 µM with Colon cancer organoid [1] is 6.32%; in the assay on Colon cancer organoid [2], 18.2%; in the assay with Colon cancer organoid [3], 35%; in the assay with Colon cancer organoid [4], 12.5%; in the assay with Colon cancer organoid [5] it was 8.76%.
With `CCN(CC)S(=O)(=O)Nc1cccc(-c2ccc3c(NC(=O)C4CC4)n[nH]c3c2)c1`, the viability at 10 µM came to 65.5% with Colon cancer organoid [1]; 144% in the assay on Colon cancer organoid [2]; 120% with Colon cancer organoid [3]; 69.2% in the assay with Colon cancer organoid [4]; 50.5% in the assay with Colon cancer organoid [5].
`CC(C)C(=O)Nc1n[nH]c2cc(-c3cccc(NS(=O)(=O)C4CC4)c3)ccc12`: the viability at 10 µM with Colon cancer organoid [1] was determined as 54.8%; in the assay with Colon cancer organoid [2] it was 129%; in the assay with Colon cancer organoid [3], 115%; with Colon cancer organoid [4] it was 62.1%; in the assay with Colon cancer organoid [5], 57.8%.
With `CN1CCN(Cc2cc(NC(=O)c3ccc4c(c3)CN(c3ccccc3)CC4)cc(C(F)(F)F)c2)CC1`, the viability at 10 µM amounted to 64.5% with Colon cancer organoid [1]; 115% with Colon cancer organoid [2]; 112% in the assay with Colon cancer organoid [3]; 63.3% in the assay on Colon cancer organoid [4]; 50.8% with Colon cancer organoid [5].
Turning to `Cc1cn(-c2cc(NC(=O)c3ccc4c(c3)CN(c3cncnc3)C[C@@H]4C)cc(C(F)(F)F)c2)cn1`, the viability at 10 µM turned out to be 63.8% in the assay with Colon cancer organoid [1]; 149% in the assay with Colon cancer organoid [2]; 115% with Colon cancer organoid [3]; 57.5% with Colon cancer organoid [4]; 50.6% with Colon cancer organoid [5].
On the same counts, the results for `CN(C)C(=O)/C(C#N)=C/c1ccc(-c2nc3cnc4[nH]ccc4c3n2C2CCCCC2)o1` are 56.7%, 117%, 96.1%, 65.2% and 47.2%.
Take `NC1(c2ccc(-c3nc4ccn5c(=O)[nH]nc5c4cc3-c3ccccc3)cc2)CCC1`: the viability at 10 µM in the assay on Colon cancer organoid [1] was found to be 19.9%; with Colon cancer organoid [2], 53.7%; in the assay on Colon cancer organoid [3], 24.5%; in the assay with Colon cancer organoid [4] it was 19.5%; with Colon cancer organoid [5], 32.7%.
Consider `Cn1cc(-c2ccc3occ(-c4ccccc4-c4ccccc4)c3n2)cn1`, for which the viability at 10 µM with Colon cancer organoid [1] worked out at 89.5%; with Colon cancer organoid [2], 115%; in the assay with Colon cancer organoid [3], 153%; with Colon cancer organoid [4], 63.4%; with Colon cancer organoid [5] it was 75.6%.
On to `Cc1cccc(-c2cnc3occ(-c4ccc(C(=O)O)c(C5CCCC5)c4)c3c2)c1`, for which the viability at 10 µM with Colon cancer organoid [1] was determined as 75.6%; in the assay with Colon cancer organoid [2] it was 112%; in the assay on Colon cancer organoid [3], 111%; in the assay on Colon cancer organoid [4] it was 66.7%; in the assay with Colon cancer organoid [5], 52.4%.
Take `C[C@H]1CC(=O)Nc2cc(C(=O)NCCC3CC3)ccc2N1C(=O)N1CC2CC2C1` (stereo not given in full): the viability at 10 µM came out at 142% in the assay on Colon cancer organoid [1]; 108% with Colon cancer organoid [2]; 196% in the assay on Colon cancer organoid [3]; 160% in the assay with Colon cancer organoid [4]; 59.8% in the assay on Colon cancer organoid [5].
As for `CN(C)C(=O)c1ccc(-c2cc(C(=O)N[C@@H]3CCc4ccccc43)no2)cc1O`, the viability at 10 µM with Colon cancer organoid [1] is 61.6%; in the assay with Colon cancer organoid [2] it was 77%; in the assay with Colon cancer organoid [3] it was 83.1%; in the assay on Colon cancer organoid [4], 64.6%; in the assay with Colon cancer organoid [5], 33.6%.
Consider `COc1cc(-c2cn([C@H]3CCc4ccccc4N(CC(F)(F)F)C3=O)nn2)ccc1-n1ccc(C)n1`, for which the viability at 10 µM in the assay on Colon cancer organoid [1] was 38.9%; in the assay on Colon cancer organoid [2], 113%; with Colon cancer organoid [3], 81.1%; with Colon cancer organoid [4], 48.6%; with Colon cancer organoid [5], 41.1%.
On to `Cn1cc(-c2ccc3occ(-c4cccc(-c5ccncc5)c4)c3n2)cn1`, for which the viability at 10 µM in the assay with Colon cancer organoid [1] is 87.7%; in the assay on Colon cancer organoid [2], 112%; in the assay on Colon cancer organoid [3], 114%; in the assay on Colon cancer organoid [4], 65.6%; in the assay with Colon cancer organoid [5], 56.4%.
On to `O=C(NCCCN1CCOC1=O)c1cnc(NCc2cc(Br)ccc2Br)nc1NC1CCCC1`, for which the viability at 10 µM is 55.2% in the assay on Colon cancer organoid [1]; 126% with Colon cancer organoid [2]; 118% with Colon cancer organoid [3]; 61.8% in the assay with Colon cancer organoid [4]; 51.8% in the assay with Colon cancer organoid [5].
Consider `CN(C)C(=O)c1ccc(-c2cc(C(=O)N(C)C3CCCC3)no2)cc1O`, for which the viability at 10 µM in the assay with Colon cancer organoid [1] was determined as 55.9%; in the assay on Colon cancer organoid [2] it was 103%; with Colon cancer organoid [3] it was 111%; in the assay on Colon cancer organoid [4] it was 76.4%; with Colon cancer organoid [5], 52.8%.
On to `CCN(Cc1ccc(Cl)cc1)c1ncc(C(=O)NCCCN2CCCC2=O)c(NC2CCCC2)n1`, for which the viability at 10 µM in the assay with Colon cancer organoid [1] was found to be 74.3%; with Colon cancer organoid [2], 108%; with Colon cancer organoid [3] it was 105%; in the assay with Colon cancer organoid [4], 61.6%; in the assay on Colon cancer organoid [5] it was 46.6%.
On the same counts, the results for `O=C(NCc1ccccc1)c1ccc(S(=O)(=O)NCc2ccccc2)cc1` are 58.1%, 103%, 97%, 82.9% and 40.5%.
`O=C(O)c1ccc(-c2coc3ncc(-c4ccccc4)cc23)cc1Cl`: the viability at 10 µM worked out at 172% in the assay with Colon cancer organoid [1]; 71.5% in the assay with Colon cancer organoid [2]; 214% in the assay on Colon cancer organoid [3]; 103% in the assay on Colon cancer organoid [4]; 73.9% in the assay with Colon cancer organoid [5].
`CCCCN(Cc1ccccc1)C(=O)c1ccc(S(=O)(=O)Nc2ccccc2)cc1`: the viability at 10 µM in the assay with Colon cancer organoid [1] was determined as 52.2%; with Colon cancer organoid [2], 80.8%; with Colon cancer organoid [3], 125%; in the assay on Colon cancer organoid [4] it was 63.6%; in the assay with Colon cancer organoid [5], 48.8%.
Turning to `CN(C)C(=O)/C(C#N)=C/c1ccc(-c2nc3cnc4c(ccn4C)c3n2C2CCCCC2)o1`, the viability at 10 µM in the assay on Colon cancer organoid [1] turned out to be 53.6%; in the assay with Colon cancer organoid [2], 107%; in the assay with Colon cancer organoid [3], 83.6%; with Colon cancer organoid [4], 46.5%; with Colon cancer organoid [5] it was 63.9%.
For the molecule `c1ccc2oc(-c3csc(C4CCN(Cc5nc6ncccc6[nH]5)CC4)n3)cc2c1`, the viability at 10 µM in the assay on Colon cancer organoid [1] is 66%; with Colon cancer organoid [2] it was 94.5%; with Colon cancer organoid [3], 159%; in the assay with Colon cancer organoid [4], 60.8%; in the assay on Colon cancer organoid [5], 37.9%.
Regarding `C[C@H]1CCCN1Cc1nc2cc(NC(=O)c3ccc4cnccc4c3)ccc2[nH]1`, the viability at 10 µM in the assay with Colon cancer organoid [1] came to 26.6%; in the assay on Colon cancer organoid [2], 53.7%; with Colon cancer organoid [3], 68.1%; with Colon cancer organoid [4] it was 43.3%; in the assay on Colon cancer organoid [5], 37.4%.
Take `COc1cc(Nc2nc(C)cc(-c3cnn4nc(OC)ccc34)n2)cc(C(F)(F)F)c1`: the viability at 10 µM in the assay with Colon cancer organoid [1] came to 68.9%; in the assay on Colon cancer organoid [2], 115%; with Colon cancer organoid [3], 119%; in the assay with Colon cancer organoid [4], 59.6%; with Colon cancer organoid [5] it was 52.6%.
Turning to `Cc1cc(CN)cc(C)c1-c1ncn(C)c1-c1cncn1C`, the viability at 10 µM with Colon cancer organoid [1] came to 73.9%; in the assay with Colon cancer organoid [2], 112%; in the assay with Colon cancer organoid [3] it was 112%; in the assay with Colon cancer organoid [4], 87.1%; in the assay on Colon cancer organoid [5] it was 80.2%.

The record behind these values is ChEMBL document CHEMBL5608113, “Targeting of CAF-induced therapy resistance in CRC organoid-stroma co-cultures” (2024).
